Experiment [1] concerns the target T1, Inhibitor of nuclear factor kappa-B kinase subunit beta (Homo sapiens) (UniProt O14920).
T1 sequence (whole entry): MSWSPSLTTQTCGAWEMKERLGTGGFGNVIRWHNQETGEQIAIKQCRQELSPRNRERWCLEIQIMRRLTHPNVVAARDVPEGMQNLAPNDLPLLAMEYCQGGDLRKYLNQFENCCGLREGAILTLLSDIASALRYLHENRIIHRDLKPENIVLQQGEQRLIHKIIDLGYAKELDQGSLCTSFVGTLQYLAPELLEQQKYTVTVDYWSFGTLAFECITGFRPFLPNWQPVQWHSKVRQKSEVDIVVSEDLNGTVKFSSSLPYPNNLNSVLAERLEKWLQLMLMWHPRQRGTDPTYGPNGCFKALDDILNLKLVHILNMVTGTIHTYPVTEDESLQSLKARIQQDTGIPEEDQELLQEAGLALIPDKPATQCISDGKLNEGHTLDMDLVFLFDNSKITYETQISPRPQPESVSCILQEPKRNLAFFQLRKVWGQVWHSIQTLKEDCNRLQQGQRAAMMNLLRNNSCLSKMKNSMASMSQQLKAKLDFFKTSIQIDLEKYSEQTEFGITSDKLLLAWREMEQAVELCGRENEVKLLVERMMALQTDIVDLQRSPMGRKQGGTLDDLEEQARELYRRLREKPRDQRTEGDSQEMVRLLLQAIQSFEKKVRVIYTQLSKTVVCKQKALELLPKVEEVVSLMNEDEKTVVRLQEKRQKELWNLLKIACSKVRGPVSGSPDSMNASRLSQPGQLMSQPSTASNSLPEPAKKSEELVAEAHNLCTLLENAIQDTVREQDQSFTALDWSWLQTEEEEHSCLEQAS
Nature of the experiment: Inhibition of IKK-beta at 10 uM by TR-FRET assay. Background: In TR-FRET formats the signal depends on donor and acceptor labels being close together.

For experiment [2], the target named is T2, Inhibitor of nuclear factor kappa-B kinase subunit beta (Homo sapiens, UniProt O14920).
T2 sequence (O14920 whole entry): T1 sequence (whole entry)
The experiment is described as follows: Inhibition of IKK-beta by TR-FRET assay.

Among the data in ChEMBL document CHEMBL1165968, “IKKbeta inhibitors identification part II: ligand and structure-based virtual screening” (Bioorg Med Chem, 2010) are inhibition and IC50 values, retold here.

Bounds are passed on as bounds.

By inhibition is commonly meant how much of the control response was suppressed. Read a high inhibition as a strong effect. The IC50 is the concentration at which inhibition is half-maximal. In the case of `COc1cc(/C=N/NC(=O)Cc2nnc(NC(=O)c3ccc([N+](=O)[O-])cc3)s2)ccc1O`, the inhibition in experiment [1] worked out at 76.4%. The same compound returned an IC50 in experiment [2] of 6.98 µM.

`COc1ccc(C(=O)Nc2nnc(CC(=O)N/N=C/c3ccc(O)c(OC)c3)s2)cc1` displayed an inhibition in experiment [1] of 53.1%. In experiment [2], the IC50 came to 10.8 µM. Regarding `CC1=NN(c2ccc(S(N)(=O)=O)cc2)C(=O)/C1=C/c1ccc(-c2ccc3c(c2)C(=O)NC3=O)o1`, in experiment [1], the inhibition amounted to 84.8%. In experiment [2], this compound had an IC50 of 6.7 µM. In experiment [2], `Cc1cc(N2CCC(O)CC2)nc2sc(C(N)=O)c(N)c12` yielded an IC50 below 1 µM. Compound `N#Cc1c(C2CCCNC2)cc(-c2ccccc2O)nc1N` (stereo not drawn) had an IC50 in experiment [2] of 0.174 µM.
